Results from patent EP4782453A1 (Beyang Therapeutics Co., Ltd., priority 2023, dated 2025).
Read-outs that look alike come from different tables or passages of the source.

Molecular target: T1, Menin-MLL (Homo sapiens, UniProt O00255)
T1 construct: His-Menin (M1-L615 end); purchased BIORTUS BP9210
T1 sequence (O00255 1-615 isoform O00255-1): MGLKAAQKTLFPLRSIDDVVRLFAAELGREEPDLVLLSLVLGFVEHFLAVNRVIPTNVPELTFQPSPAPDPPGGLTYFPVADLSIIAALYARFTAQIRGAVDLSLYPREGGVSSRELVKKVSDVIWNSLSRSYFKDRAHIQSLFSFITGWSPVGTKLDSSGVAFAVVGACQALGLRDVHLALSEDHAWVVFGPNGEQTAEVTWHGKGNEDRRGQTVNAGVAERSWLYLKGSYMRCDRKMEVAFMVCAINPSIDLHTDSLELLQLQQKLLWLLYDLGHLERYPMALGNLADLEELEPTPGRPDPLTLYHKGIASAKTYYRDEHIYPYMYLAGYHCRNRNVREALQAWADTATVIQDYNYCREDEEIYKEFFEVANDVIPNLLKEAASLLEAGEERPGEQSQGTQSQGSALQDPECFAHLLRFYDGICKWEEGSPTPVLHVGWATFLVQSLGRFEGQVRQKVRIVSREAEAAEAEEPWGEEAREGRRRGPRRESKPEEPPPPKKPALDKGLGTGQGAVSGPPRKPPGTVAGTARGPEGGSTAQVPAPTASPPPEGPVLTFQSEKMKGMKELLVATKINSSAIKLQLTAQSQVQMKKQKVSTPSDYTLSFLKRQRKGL
Assay: Inhibitory activity against Menin-MLL binding (fluorescence polarization)
Conditions: 150 nM His-Menin, 15 nM FITC-MLL, 25°C for 60 min
How it was run: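 Fluorescence polarization competition: compound and 150 nM His-tagged menin (residues M1-L615) sit 15 min at 25 °C in pH 7.5 HEPES buffer with NaCl, DTT and BSA; 15 nM FITC-labelled MLL peptide then binds for 60 min. IC50 fitted sigmoidally from mP values, duplicate wells.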

[1] = Menin-MLL IC50, fluorescence polarization
[2] = fluorescence polarization, read-out: Menin-MLL IC50

Row | Compound | IC50 [1] [µM] | IC50 [2] [µM]
1 | CCN(C(=O)c1cc(F)ccc1-c1cc(C2CCN(C[C@H]3CC[C@H](NS(=O)(=O)CC)CC3)C2)cn2c(C3CC3)ncc12)C(C)C (stereo partly shown) [Compound 69, 2-[3-cyclopropyl-6-(1-{[(1r,4r)-4-ethanesulfonamidocyclohexyl]methyl}pyrrolidin-3-yl)imidazo[1,5-a]pyridin-8-yl]-N-ethyl-5-fluoro-N-(isopropyl)benzamide] | 0.222 | –
2 | CCN(C(=O)c1cc(F)ccc1-c1cc(N2CCN(C(=O)[C@H]3CCCN3)CC2)cn2c(C)ncc12)C(C)C [Example 106] | – | 0.153
3 | CCN(C(=O)c1cc(F)ccc1-c1cc(C2=CCC(NCc3ccc(-c4cc(OC)c(OC)nn4)cc3)CC2)n2ccncc12)C(C)C (stereo not shown) [Example 4, 2-{6-[4-({[4-(5,6-dimethoxypyridazin-3-yl)phenyl]methyl}amino)cyclohexyl-1-ene-1-yl]pyrrolo[1,2-a]pyrazin-8-yl}-N-ethyl-5-fluoro-N-isopropylbenzamide] | – | 0.0175
4 | CCN(C(=O)c1cc(F)ccc1-c1cc(C2CN([C@H](CCCN3CCN(C(C)=O)CC3)C(C)C)C2)cc2c1cnn2C)C(C)C [Example 407] | – | 0.033
5 | CCN(C(=O)c1cc(F)ccc1-c1cc(C2CN([C@@H](C)C3CCN(C(C)=O)CC3)C2)cn2c(C)ncc12)C(C)C [Example 281-1] | – | 0.009
6 | CCN(C(=O)c1cc(F)ccc1-c1cc(C2CN([C@H](CCCN3CCNC(=O)C3)C(C)C)C2)cn2c(C)ncc12)C(C)C [Example 494] | – | 0.0041
7 | CCN(C(=O)c1cc(F)ccc1-c1cc(C2CN([C@@H](CCCN3CCN(CCO)CC3)C(C)C)C2)cc2c1cnn2C)C(C)C [Example 400-1] | – | 0.22
8 | CCN(C(=O)c1cc(F)ccc1-c1cc(C2CN([C@H](CN3CCN(CCOC)CC3)C(C)C)C2)cc2c1cnn2C)C(C)C [Example 422] | – | 0.029
9 | CC(C)N(CC(F)F)C(=O)c1cc(F)ccc1-c1cc([C@@H]2CCN(CCN3CCC(NC(=O)OC(C)(C)C)CC3)C2)cc2c1cnn2C [Example 166-1, N-(1-{2-[(3S)-3-(4-{2-[(2,2-difluoroethyl)(isopropyl)aminoformyl]-4-fluorophenyl}-1-methyl-1H-indazol-6-yl)pyrrolidin-1-yl]ethyl}piperidin-4-yl)tert-butyl carbamate] | – | 0.231
10 | CCN(C(=O)c1cc(F)ccc1-c1cc(C2CN([C@H](CCCN3CCOCC3)C(C)C)C2)cn2c(C)ncc12)C(C)C [Example 375, N-ethyl-5-fluoro-2-(3-methyl-6-{1-[(3R)-2-methyl-6-(morpholin-4-yl)hexan-3-yl]azacyclobutan-3-yl}imidazo[1,5-a]pyridin-8-yl)-N-(isopropyl)benzamide] | – | 0.0039
11 | CCN(C(=O)c1cc(F)ccc1-c1cc(C2CCN(C[C@H]3CC[C@H](N4CCOC4=O)CC3)C2)nc2c1cnn2C)C(C)C (stereo partly shown) [Example 28] | – | 0.118
12 | C=C1CN[C@H](C(=O)N2CCC(c3cc(-c4ccc(F)cc4C(=O)N(CC(F)F)C(C)C)c4cnc(C)n4c3)CC2)C1 [Example 144] | – | 0.051
13 | Cc1nc(F)c2c(-c3ccc(F)cc3C(=O)N(CC(F)F)C(C)C)cc(C3CN(C(=O)[C@H]4NCC[C@@H]4C)C3)cn12 [Example 156] | – | 0.03
14 | CC[C@H](C)[C@H](NC)C(=O)N1CC(c2cc(-c3ccc(F)cc3C(=O)N(CC)C(C)C)c3c(F)nc(C)n3c2)C1 [Example 316] | 0.099 | –
15 | CCN1CCN(CCC[C@@H](C(C)C)N2CC(c3cc(-c4ccc(F)cc4C(=O)N4CCOC[C@H]4C)c4cnc(C)n4c3)C2)CC1 [Example 324-1] | – | 0.126
16 | CCN(C(=O)c1cc(F)ccc1-c1cc(C2CN(C(=O)C3NC4CCC3CC4)C2)cn2c(C)nc(F)c12)C(C)C [Example 107, N-ethyl-5-fluoro-2-(1-fluoro-3-methyl-6-{1-[(1R,3S,4S)-2-azabicyclo[2.2.2]octan-3-carbonyl]azacyclobutan-3-yl}imidazo[1,5-a]pyridin-8-yl)-N-(isopropyl)benzamide] | 0.0045 | –
17 | CCS(=O)(=O)N[C@H]1CC[C@H](CN2CC(c3cc(-c4ccc(F)cc4C(=O)N(CC(F)F)C(C)C)c4cnn(C)c4c3)C2)CC1 [Example 153, N-(2,2-difluoroethyl)-5-fluoro-2-[1-methyl-6-(1-{[(1r,4r)-4-ethanesulfonamidocyclohexyl]methyl}-azacyclobutan-3-yl)-1H-indazol-4-yl]-N-(isopropyl)benzamide] | 0.031 | –
18 | CCC(=O)N(c1cc(F)ccc1-c1cc(N2CCN(C(=O)C3NC4CCC3CC4)CC2)cn2c(C)ncc12)C(C)C [Example 77, N-[5-fluoro-2-(3-methyl-6-{4-[(1R,3S,4S)-2-azabicyclo[2.2.2]octan-3-carbonyl]piperazin-1-yl}imidazo[1,5-a]pyridin-8-yl)phenyl]-N-(isopropyl)propionamide] | 0.1 | –
19 | CCN(C(=O)c1cc(F)ccc1-c1cc(C2=CCN(C(=O)C3NC4CCC3CC4)CC2)n2ccncc12)C(C)C [Example 110, N-ethyl-5-fluoro-N-(isopropyl)-2-(6-{1-[(1R,3S,4S)-2-azabicyclo[2.2.2]octan-3-carbonyl]-1,2,3,6-tetrahydropyridin-4-yl}pyrrolo[1,2-a]pyrazin-8-yl)benzamide] | 0.025 | –
20 | CCN(C(=O)c1cc(F)ccc1-c1cc(C2CN(C(C[C@@H]3CNCCO3)C(C)C)C2)cn2c(C)ncc12)C(C)C (stereo partly drawn) [Example 462, N-ethyl-5-fluoro-2-[3-methyl-6-(1-{3-methyl-1-[(2R)-morpholin-2-yl]butan-2-yl}azacyclobutan-3-yl)imidazo[1,5-a]pyridin-8-yl]-N-(isopropyl)benzamide] | – | 0.011
21 | Cc1nc(F)c2c(-c3ccc(F)cc3C(=O)N3CCOC[C@H]3C)cc(C3CN([C@@H](CN4CCN(C)CC4)C(C)C)C3)cn12 [Example 368-1, (3R)-4-[5-fluoro-2-(1-fluoro-3-methyl-6-{1-[(2R)-3-methyl-1-(4-methylpiperazin-1-yl)butan-2-yl]azacyclobutan-3-yl}imidazo[1,5-a]pyridin-8-yl)benzoyl]-3-methylmorpholine] | – | 0.023
22 | CCN(C(=O)c1cc(F)ccc1-c1cc(C2CN([C@H](CCCN3CCN[C@H](CF)C3)C(C)C)C2)cn2c(C)ncc12)C(C)C [Example 501] | – | 0.0016
23 | CCN1CCN(CCC[C@H](C(C)C)N2CC(c3cc(-c4ccc(F)cc4C(=O)N(CC)C(C)C)c4cnn(C)c4c3)C2)CC1 [Example 394-2, N-ethyl-2-(6-{1-[(3R)-6-(4-ethylpiperazin-1-yl)-2-methylhexan-3-yl]azacyclobutan-3-yl}-1-methyl-1H-indazol-4-yl)-5-fluoro-N-(isopropyl)benzamide] | – | 0.0032
24 | CC(=O)N1CCC([C@H](C(C)C)N2CC(c3cc(-c4ccc(F)cc4C(=O)N4CCOC[C@H]4C)c4c(F)nc(C)n4c3)C2)CC1 [Example 357-1, 1-{4-[(1S)-1-[3-(1-fluoro-8-{4-fluoro-2-[(3R)-3-methylmorpholin-4-carbonyl]phenyl}-3-methylimidazo[1,5-a]pyridin-6-yl)azacyclobutan-1-yl]-2-methylpropyl]piperidin-1-yl}ethan-1-one] | – | 0.0155
25 | Cc1nc(F)c2c(-c3ccc(F)cc3C(=O)N3CCOC[C@H]3C)cc(C3CN([C@@H](C)C4CCN(C(=O)C(C)(F)F)CC4)C3)cn12 [Example 302] | – | 0.022
